According to patent publication US12564622B2, “Preventing cytokine release syndrome” (priority 2017, dated 2026):
Where “and” joins values, the source holds several entries; their conditions need not be identical. Equal values may be shown once. Entries after “also recorded” stand apart in the source; their conditions may differ.

Tests used:
[1] = system: polymicrobial peritoneal sepsis induced by CLP; test: Cecal ligation and puncture (CLP) sepsis; format: in vivo, mouse (C57BL/6); settings: ANP given after CLP
[2] = system: Raji-bearing NSGS mice with low tumour burden treated with hCART19; test: hCART19 treatment of Raji-bearing NSGS mice, low tumour burden; format: in vivo, mouse (NSGS); settings: for hCART19-induced catecholamines and human and mouse cytokines: metyrosine IP or ANP by osmotic pump; for prevention of CRS (mouse cytokines IL-6, KC, MIP-2): with hCART19
Source text: (§1) Six to eight weeks old female NSG-SGM3 (NSGS) mice (NOD.Cg-Prkdcscid Il2rgtm1WjlTg (CMV-IL3, CSF2, KITLG) 1Eav/MloySzJ, Stock #013062) were purchased from the Jackson Laboratory. Raji cells were transfected with a luciferase construct via lentivirus to create Raji-luc cells. NSGS is a triple transgenic strain expressing human IL3, GM-CSF and SCF combine the features of the highly immunodeficient NOD scid gamma (NSG) mouse. One day before the injection of Raji cells, mice were irradiated at a dose of 2 Gy in a CIXD Xstahl device. In high tumor burden experiments in FIG. 5, 10^6 Raji-luc cells were injected IV via tail vein. Six days later, tumor loads were assessed using a Xenogen instrument and 15×10^6 hCART19 cells or untransduced T-cells were injected IV. In low tumor burden experiments in FIG. 6, 2×10^5 Raji-luc cells were injected IV via tail vein. Four days later, tumor loads were assessed using a Xenogen instrument and 15×10^6 hCART19 cells were injected IV. Metyrosine was injected IP at 60 mg/kg/day for three days before the hCART19 injection. On the day of CART19 injection, a fourth dose of 60 mg/kg was given IP and the mice were subsequently injected four more times at daily intervals at 30 mg/kg.

[3] = system: human U937-derived macrophage cells; test: U937 macrophage catecholamine and cytokine production; format: cell-based; settings: LPS 1 μg/ml and/or epinephrine 15 ng/ml, metyrosine 2 mM
Method: Human U937 cells were cultured in RPMI 1640 media with 5% FBS and antibiotics, and were differentiated to M1 macrophage-like cells by incubating with 20 nM phorbol 12-myristate 13-acetate (PMA, Sigma) for 24 hours and further culturing in RPMI 1640 media with 5% FBS and antibiotics for another 72 hours. The experiments with U937 were set up in the same way as described above with peritoneal macrophages. […] Cells were incubated for 24 hours with LPS at 1 μg/ml.

[4] = system: LPS-injected BALB/c mice; format: in vivo, mouse (BALB/c)
Method: LPS from Escherichia coli 0111:B4 was formulated as a 10 mg/ml solution in water and stored in −80° C. LPS was injected intraperitoneally at a dose of 3.5 mg/kg. […] Human ANP (Sigma) was dissolved in saline, loaded in mini-osmotic pumps (ALZET) with a release rate of 12 μg/day and implanted subcutaneously in the back of mice 12 hours before the LPS injection. Mice implanted with pumps loaded with saline served as controls. […] […] The control groups were injected with PBS. […] Hydration of mice was supported by daily subcutaneous injection of 0.5 ml saline.
LPS from Escherichia coli 0111:B4 was formulated as a 10 mg/ml solution in water and stored in −80° C. In Balb/C mice, LPS was injected intraperitoneally at a lethal dose of 3.5 mg/kg. […] In experiments with catecholamine pumps, a sublethal dose with 15-35% death rate was optimized in Balb/C mice. In TH+/+ and TH^ΔLysM mice with C57BL/6 background, a lethal dose was optimized at 5 mg/kg. Human ANP (Sigma) was dissolved in saline, loaded in mini-osmotic pumps (ALZET) with a release rate of 12 μg/day and implanted subcutaneously in the back of mice 12 hours before the LPS injection. Mice implanted with pumps loaded with saline served as controls. Metyrosine was freshly dissolved in PBS and injected IP at the indicated doses for three days prior to the LPS treatment. One hour before the LPS injection, metyrosine was injected into the lower abdomen contralateral to the side of LPS injection. The control groups were injected with PBS. For the following 3 days, metyrosine was injected IP at reduced indicated doses. Hydration of mice was supported by daily subcutaneous injection of 0.5 ml saline.

[5] = system: co-culture of hCART19 and Raji cells; test: In vitro co-culture of Raji and hCART19 cells; format: cell-based, human; settings: Raji with hCART19 (1:5), 24 hours; metyrosine 2 mM or ANP 5 μg/ml
Source text: Human CD19scFv-CD28-4-1BB-CD3ζ CAR-T cells (PM-CAR1003) were purchased from Promab Biotechnologies and maintained less than 7 days in AIM-V medium (GIBCO) supplemented with 300 IU/ml of hIL2 (Peprotech), 5% FBS and antibiotics (Car-T medium).

[6] = system: Raji-bearing NSGS mice with high tumour burden treated with hCART19; test: hCART19 treatment of Raji-bearing NSGS mice, high tumour burden; format: in vivo, mouse (NSGS)
Source text: Six to eight-week old female NSG-SGM3 mice (NOD.Cg-Prkdcscid Il2rgtm1Wjl Tg(CMVIL3,CSF2,KITLG)1Eav/MloySzJ, Stock #013062) were purchased from the Jackson Laboratory. Raji cells were transfected with a luciferase construct via lentivirus to create Raji-luc cells as described elsewhere (Bai et al., 2015 Neuro Oncol., 17:545). Human CD19scFv-CD28-4-1BB-CD3ζ CART cells (PM-CAR1003, CART19) from Promab Biotechnologies were maintained for less than 7 days in AIM-V medium (GIBCO) supplemented with 300 IU/ml of hIL2 (Peprotech), 5% FBS and antibiotics. One day before the injection of Raji cells, mice were irradiated at a dose of 2 Gy in a CIXD Xstahl device. One million Raji-luc cells were injected IV via tail vein on day zero. Six days later, tumor loads were assessed using a Xenogen instrument and 15×10^6 CART19 cells were injected IV. Metyrosine was injected IP at 60 mg/kg/day for three days before the CART19 injection. On the day of CART19 injection, a fourth dose of 60 mg/kg was given IP and the mice were subsequently injected four more times at daily intervals at 30 mg/kg.
as §1

[7] = 24 and 72 hours after hCART19, metyrosine pre-treatment

Row | Compound | survival after CLP, treatment after rather than before CLP [1] | hCART19-induced catecholamines and human and mouse cytokines ([2]; low tumour burden) | prevention of CRS (mouse cytokines IL-6, KC, MIP-2) [2] | catecholamines and cytokines [3] | levels of catecholamines ([4]; LPS, metyrosine pre-treatment) | levels of inflammatory cytokines ([4]; LPS, metyrosine pre-treatment) | mice surviving ([4]; lethal dose LPS IP, metyrosine pre-treatment) | efficacy at 20 mg/kg ([4]; lethal dose LPS, metyrosine 20 mg/kg) | dependence of efficacy on dose ([4]; lethal dose LPS, metyrosine 20, 30, 40 mg/kg) | catecholamine production [5] | cytokine production [5] | circulating catecholamines [6, 7] | circulating human and mouse cytokines [6, 7] | circulating catecholamines ([6]; 24 and 72 hours after hCART19, metyrosine pre-treatment, listed as Metyrosine) | final outcome ([6]; high tumour burden, hCART19 plus metyrosine) | plasma dopamine ([6]; two time points after CART19 treatment) | animals with tumors eradicated (BLI below 10^6), day 6 ([2]; hCART19 plus metyrosine) | animals with tumors eradicated (BLI below 10^6), day 19 ([2]; hCART19 plus metyrosine) | reduction of lymphoma burden within one week versus hCART19 controls ([2]; hCART19 plus metyrosine, BLI) | long-term survival ([2]; low tumour burden) [%]
1 | CC[C@H](C)[C@@H]1NC(=O)[C@H](CCCNC(=N)N)NC(=O)[C@H](CC(=O)O)NC(=O)[C@H](CCSC)NC(=O)[C@H](CCCNC(=N)N)NC(=O)CNC(=O)CNC(=O)[C@H](Cc2ccccc2)NC(=O)[C@@H](NC(=O)[C@H](CO)NC(=O)[C@H](CO)NC(=O)[C@H](CCCNC(=N)N)NC(=O)[C@H](CCCNC(=N)N)NC(=O)[C@H](CC(C)C)NC(=O)[C@@H](N)CO)CSSC[C@@H](C(=O)N[C@@H](CC(N)=O)C(=O)N[C@@H](CO)C(=O)N[C@@H](Cc2ccccc2)C(=O)N[C@@H](CCCNC(=N)N)C(=O)N[C@@H](Cc2ccc(O)cc2)C(=O)O)NC(=O)CNC(=O)[C@H](CC(C)C)NC(=O)CNC(=O)[C@H](CO)NC(=O)[C@H](CCC(N)=O)NC(=O)[C@H](C)NC(=O)CNC1=O [ANP, atrial natriuretic peptide] | did not rescue the mice | abrogated | effective at preventing CRS | – | – | – | – | – | – | – | – | – | – | – | – | – | – | – | – | –
2 | C[C@](N)(Cc1ccc(O)cc1)C(=O)O [metyrosine, α-methyl-tyrosine] | – | reduced | effective at preventing CRS | Comparable results were obtained | substantially reduced | substantially reduced | ~70% and ~75% | ineffective | dose-dependent | significantly decreased; also recorded: suppressed the catecholamine surge | significantly decreased; also recorded: blocked | significantly reduced; also recorded: significantly lower | significantly reduced; also recorded: significantly lowered | able to block that effect | eventually died with progressive lymphoma | able to reduce dopamine production | 6 out of 10 | 4 out of 10 | significantly more so | 40
